Common to all, as to assay type: biochemical
The target of one test is EGFR (Homo sapiens, UniProt P00533). The experiment in a line: Inhibition of a panel of kinases, in vitro HotSpot kinase assay: EGFR. Here is the method:
(§1) The degree of inhibition of a panel of kinases is determined using the in vitro HotSpot kinase assay (purified enzymes, ^33P-ATP, an appropriate substrate and 1 μM ATP).

The next test deals with SRC (Homo sapiens, UniProt P12931). As to the kind of experiment: Inhibition of a panel of kinases, in vitro HotSpot kinase assay: SRC. Here is the method: as §1
Chain of SRC (P12931 whole entry): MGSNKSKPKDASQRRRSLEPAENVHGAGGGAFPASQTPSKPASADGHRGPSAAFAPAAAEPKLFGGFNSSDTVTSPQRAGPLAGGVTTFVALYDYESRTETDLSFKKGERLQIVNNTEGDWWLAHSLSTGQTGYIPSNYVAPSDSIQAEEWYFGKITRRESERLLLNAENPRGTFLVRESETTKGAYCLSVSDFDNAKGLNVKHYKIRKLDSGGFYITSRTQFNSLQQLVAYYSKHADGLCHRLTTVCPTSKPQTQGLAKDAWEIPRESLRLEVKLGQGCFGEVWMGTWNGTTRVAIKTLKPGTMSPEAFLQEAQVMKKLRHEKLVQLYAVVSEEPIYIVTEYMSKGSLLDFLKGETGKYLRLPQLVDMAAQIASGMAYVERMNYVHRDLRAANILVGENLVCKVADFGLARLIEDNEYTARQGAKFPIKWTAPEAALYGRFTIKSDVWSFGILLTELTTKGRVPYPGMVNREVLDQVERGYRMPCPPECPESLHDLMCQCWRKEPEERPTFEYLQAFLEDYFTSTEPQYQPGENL
Another test addresses LCK (Homo sapiens, UniProt P06239). As to the kind of experiment: Inhibition of a panel of kinases, in vitro HotSpot kinase assay: LCK. Conditions: read-out: IC50 LCK.
The next test has as its target T1, ITK (Homo sapiens, UniProt Q08881).
T1 sequence (Q08881 1-620): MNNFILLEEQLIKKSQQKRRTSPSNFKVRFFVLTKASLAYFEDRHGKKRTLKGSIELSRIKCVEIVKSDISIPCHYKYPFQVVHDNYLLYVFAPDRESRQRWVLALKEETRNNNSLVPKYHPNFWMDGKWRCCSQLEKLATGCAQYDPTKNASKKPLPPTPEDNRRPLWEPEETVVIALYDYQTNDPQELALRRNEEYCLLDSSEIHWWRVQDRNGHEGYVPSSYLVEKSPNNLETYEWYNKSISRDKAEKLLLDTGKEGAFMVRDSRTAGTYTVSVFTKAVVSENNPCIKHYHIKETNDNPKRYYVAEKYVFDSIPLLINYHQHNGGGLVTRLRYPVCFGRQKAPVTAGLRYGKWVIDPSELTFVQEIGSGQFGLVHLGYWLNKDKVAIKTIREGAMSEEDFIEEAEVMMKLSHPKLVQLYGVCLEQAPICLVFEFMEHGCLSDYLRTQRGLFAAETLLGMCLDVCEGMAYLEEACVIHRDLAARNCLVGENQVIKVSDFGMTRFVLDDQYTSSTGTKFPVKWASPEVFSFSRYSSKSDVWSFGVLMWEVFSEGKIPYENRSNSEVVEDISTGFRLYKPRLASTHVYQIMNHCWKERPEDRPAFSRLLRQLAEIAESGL
As to the kind of experiment: Inhibition of a panel of kinases, in vitro HotSpot kinase assay: ITK. The procedure:
as §1

In a further test the target is T2, JAK3 (Homo sapiens, UniProt P52333).
T2 sequence (P52333 1-1124): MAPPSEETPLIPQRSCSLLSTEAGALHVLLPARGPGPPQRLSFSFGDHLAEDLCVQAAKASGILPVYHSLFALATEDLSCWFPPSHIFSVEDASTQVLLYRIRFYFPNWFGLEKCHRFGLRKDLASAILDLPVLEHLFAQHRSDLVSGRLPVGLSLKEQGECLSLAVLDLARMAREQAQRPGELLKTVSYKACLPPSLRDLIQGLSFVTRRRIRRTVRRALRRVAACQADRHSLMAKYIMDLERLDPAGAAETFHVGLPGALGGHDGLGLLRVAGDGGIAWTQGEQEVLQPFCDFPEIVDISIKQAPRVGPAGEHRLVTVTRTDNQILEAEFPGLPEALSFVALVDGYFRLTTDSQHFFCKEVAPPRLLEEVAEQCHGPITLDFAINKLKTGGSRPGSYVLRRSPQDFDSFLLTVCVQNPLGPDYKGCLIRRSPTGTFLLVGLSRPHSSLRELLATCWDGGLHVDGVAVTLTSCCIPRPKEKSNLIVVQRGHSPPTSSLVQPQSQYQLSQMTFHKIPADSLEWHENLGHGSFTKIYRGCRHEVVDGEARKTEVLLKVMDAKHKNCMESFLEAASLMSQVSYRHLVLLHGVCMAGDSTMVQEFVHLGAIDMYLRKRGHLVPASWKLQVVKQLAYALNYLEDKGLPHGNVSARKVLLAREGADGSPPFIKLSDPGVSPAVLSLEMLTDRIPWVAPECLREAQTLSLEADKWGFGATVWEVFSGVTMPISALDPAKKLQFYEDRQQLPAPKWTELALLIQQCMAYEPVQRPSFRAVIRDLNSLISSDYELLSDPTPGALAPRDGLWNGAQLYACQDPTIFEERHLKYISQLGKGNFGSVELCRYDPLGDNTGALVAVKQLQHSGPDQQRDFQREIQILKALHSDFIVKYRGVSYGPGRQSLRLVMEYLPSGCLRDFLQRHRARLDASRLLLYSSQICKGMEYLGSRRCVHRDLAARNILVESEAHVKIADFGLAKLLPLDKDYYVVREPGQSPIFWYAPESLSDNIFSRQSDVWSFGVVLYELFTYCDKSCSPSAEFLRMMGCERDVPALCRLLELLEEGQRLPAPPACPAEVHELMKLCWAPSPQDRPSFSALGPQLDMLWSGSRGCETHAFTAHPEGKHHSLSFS
As to the kind of experiment: Inhibition of a panel of kinases, in vitro HotSpot kinase assay: JAK3. The conditions noted are these: read-out: IC50 JAK3.

The mark [1] stands for this setting: Table 13, A compounds, 1 μM ATP.

What is called pIC50 is the negative decadic logarithm of the IC50, by convention in mol/L.

pIC50: −log10 of the molar value. Like-named read-outs stand apart in the source and are kept apart here. Some results are limits rather than exact numbers.

Chain of LCK (P06239 whole entry): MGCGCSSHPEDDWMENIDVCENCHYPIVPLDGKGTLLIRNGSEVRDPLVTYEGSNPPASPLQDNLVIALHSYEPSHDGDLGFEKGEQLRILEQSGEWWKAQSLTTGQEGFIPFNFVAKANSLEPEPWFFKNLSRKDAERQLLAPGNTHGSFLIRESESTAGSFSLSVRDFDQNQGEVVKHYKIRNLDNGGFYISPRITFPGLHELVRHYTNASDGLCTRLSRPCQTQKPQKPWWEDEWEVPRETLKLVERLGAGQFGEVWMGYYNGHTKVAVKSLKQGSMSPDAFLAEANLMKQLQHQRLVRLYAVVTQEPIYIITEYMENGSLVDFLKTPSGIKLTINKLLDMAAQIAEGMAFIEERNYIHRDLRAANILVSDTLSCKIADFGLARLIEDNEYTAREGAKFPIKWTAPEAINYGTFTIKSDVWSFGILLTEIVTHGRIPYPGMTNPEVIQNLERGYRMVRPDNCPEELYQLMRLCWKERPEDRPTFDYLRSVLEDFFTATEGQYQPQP
Chain of EGFR (P00533 25-1210): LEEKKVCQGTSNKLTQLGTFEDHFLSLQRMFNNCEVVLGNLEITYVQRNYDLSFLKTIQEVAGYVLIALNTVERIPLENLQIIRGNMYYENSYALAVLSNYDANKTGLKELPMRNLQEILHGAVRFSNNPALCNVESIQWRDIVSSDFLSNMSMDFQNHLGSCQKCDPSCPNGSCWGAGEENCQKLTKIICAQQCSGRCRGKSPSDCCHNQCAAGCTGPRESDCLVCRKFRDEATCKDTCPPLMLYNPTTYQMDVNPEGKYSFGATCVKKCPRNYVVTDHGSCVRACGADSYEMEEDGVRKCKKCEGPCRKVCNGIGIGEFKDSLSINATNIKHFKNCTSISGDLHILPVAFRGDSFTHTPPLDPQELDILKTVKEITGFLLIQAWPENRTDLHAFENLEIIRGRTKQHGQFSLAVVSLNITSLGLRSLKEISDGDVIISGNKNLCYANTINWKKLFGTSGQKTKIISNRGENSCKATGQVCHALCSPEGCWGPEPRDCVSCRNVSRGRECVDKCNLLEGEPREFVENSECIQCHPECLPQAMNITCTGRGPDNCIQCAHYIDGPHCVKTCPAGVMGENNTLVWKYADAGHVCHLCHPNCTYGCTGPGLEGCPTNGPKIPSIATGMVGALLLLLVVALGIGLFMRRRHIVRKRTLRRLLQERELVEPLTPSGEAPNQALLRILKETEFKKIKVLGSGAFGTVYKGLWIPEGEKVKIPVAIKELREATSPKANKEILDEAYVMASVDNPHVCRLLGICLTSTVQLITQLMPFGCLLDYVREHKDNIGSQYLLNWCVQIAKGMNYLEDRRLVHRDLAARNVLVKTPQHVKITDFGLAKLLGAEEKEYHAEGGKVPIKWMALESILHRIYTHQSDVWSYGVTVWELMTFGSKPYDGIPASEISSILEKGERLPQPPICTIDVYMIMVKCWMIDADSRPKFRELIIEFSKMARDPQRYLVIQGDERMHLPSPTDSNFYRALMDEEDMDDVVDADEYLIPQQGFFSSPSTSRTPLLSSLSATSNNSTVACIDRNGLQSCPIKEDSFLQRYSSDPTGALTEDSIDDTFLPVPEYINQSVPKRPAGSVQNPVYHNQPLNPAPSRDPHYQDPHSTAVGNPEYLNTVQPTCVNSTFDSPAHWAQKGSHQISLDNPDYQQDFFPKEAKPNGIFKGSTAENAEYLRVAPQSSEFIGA

With `C=CC(=O)N1CC[C@@H](N(C)c2nnc(C(N)=O)c(Nc3cc(C)ns3)n2)C1` [Example E-12, (R)-3-((1-acryloylpyrrolidin-3-yl)(methyl)amino)-5-(3-methylisothiazol-5-ylamino)-1,2,4-triazine-6-carboxamide], the negative logarithm of the IC50 (pIC50) was 7.00 to 8.00 against EGFR (E compounds, Table 17); 7.00 to 8.00 against SRC (E compounds, Table 17); 6.00 to 7.00 at LCK (E compounds, Table 17); not below 8.00 at ITK (E compounds, Table 17); more than 8.00 at JAK3 (E compounds, Table 17).

For the compound `C=CC(=O)N1CC[C@@H](N(C)c2nnc(C(N)=O)c(Nc3ccc(C(C)C)cc3)n2)C1` [Example E-26, (R)-3-((1-acryloylpyrrolidin-3-yl)(methyl)amino)-5-(4-isopropylphenylamino)-1,2,4-triazine-6-carboxamide], the negative-log IC50 (pIC50) against EGFR (E compounds, Table 17) is not below 8.00; against SRC (E compounds, Table 17) it was 7.00 to 8.00; at LCK (E compounds, Table 17), 5.00 to 6.00; at ITK (E compounds, Table 17) it was not below 8.00; on JAK3 (E compounds, Table 17), more than 8.00.

In the case of `C[C@@H]1[C@H](NC(=O)c2ccc(C3CC3)cc2)CCCN1c1cnc(C(N)=O)c(Nc2cnn(C3CCN(C)CC3)c2)n1` [Example A-173], the pIC50 at EGFR (setting [1]) is 6.00 to 7.00; on SRC (setting [1]), 7.00 to 8.00; at LCK (setting [1]), 7.00 to 8.00; against ITK (setting [1]), 6.00 to 7.00; on JAK3 (setting [1]) it was 5.00 to 6.00.

On to `C[C@@H]1[C@H](NC(=O)c2ccc(C(=O)N(C)C)cc2)CCCN1c1cnc(C(N)=O)c(Nc2cnn(C)c2)n1` [Example E-138, N1-((2R,3R)-1-(5-carbamoyl-6-((1-methyl-1H-pyrazol-4-yl)amino)pyrazin-2-yl)-2-methylpiperidin-3-yl)-N4,N4-dimethylterephthalamide], for which the negative logarithm of the IC50 (pIC50) is 6.00 to 7.00 against EGFR (E compounds, Table 17); 7.00 to 8.00 at SRC (E compounds, Table 17); 6.00 to 7.00 at LCK (E compounds, Table 17); 6.00 to 7.00 against ITK (E compounds, Table 17); 6.00 to 7.00 at JAK3 (E compounds, Table 17).

Regarding `C=CC(=O)N1CCC[C@@H](N(C)c2cnc(C(N)=O)c(Nc3ccc(C4(C)CCN(C5CCCC5)CC4)cc3)n2)C1` [Example E-103, (R)-5-((1-acryloylpiperidin-3-yl)(methyl)amino)-3-(4-(1-cyclopentyl-4-methylpiperidin-4-yl)phenylamino)pyrazine-2-carboxamide], the pIC50 is not below 8.00 against EGFR (E compounds, Table 17); not below 8.00 at SRC (E compounds, Table 17); more than 8.00 at LCK (E compounds, Table 17); not below 8.00 against ITK (E compounds, Table 17); more than 8.00 on JAK3 (E compounds, Table 17).

As to `C[C@@H]1[C@H](NC(=O)c2ccc(C3CC3)cc2F)CCCN1c1cnc(C(N)=O)c(Nc2ccc(N3CCN(C)CC3)nc2)n1` [Example A-177, 5-[(2R,3R)-3-(4-cyclopropyl-2-fluorobenzamido)-2-methylpiperidin-1-yl]-3-{[6-(4-methylpiperazin-1-yl)pyridin-3-yl]amino}pyrazine-2-caoxamide], the pIC50 on EGFR (setting [1]) was 5.00 to 6.00; against SRC (setting [1]) it was 6.00 to 7.00; at LCK (setting [1]), 6.00 to 7.00; against ITK (setting [1]) it was 5.00 to 6.00; at JAK3 (setting [1]), 5.00 to 6.00.

Take `CN1CCC(n2cc(Nc3nc(N4CCC[C@@H](n5ccc6cc(C7CC7)ccc6c5=O)C4)cnc3C(N)=O)cn2)CC1` [Example A-178, 5-[(3R)-3-(6-cyclopropyl-1-oxo-1,2-dihydroisoquinolin-2-yl)piperidin-1-yl]-3-{[1-(1-methylpiperidin-4-yl)-1H-pyrazol-4-yl]amino}pyrazine-2-carboxamide]: the pIC50 is 5.00 to 6.00 at EGFR (setting [1]); 6.00 to 7.00 against SRC (setting [1]); 6.00 to 7.00 on LCK (setting [1]); 6.00 to 7.00 against ITK (setting [1]); 5.00 to 6.00 at JAK3 (setting [1]).

The record behind these values is patent US20210070748A1, “INHIBITORS OF BRUTONS TYROSINE KINASE” (Pharmacyclics LLC, priority 2015, published 2021).
